Publication PMC4550851, “Potential analgesic effects of a novel N-acylethanolamine acid amidase inhibitor F96 through PPAR-α” (Scientific Reports, 2015)

Assays:
Type in all cases: biochemical
[1] = molecular target: T1, N-acylethanolamine acid amidase (NAAA) (Homo sapiens, UniProt Q02083); test: enzyme activity assay, IC50
T1 sequence (Q02083 29-125): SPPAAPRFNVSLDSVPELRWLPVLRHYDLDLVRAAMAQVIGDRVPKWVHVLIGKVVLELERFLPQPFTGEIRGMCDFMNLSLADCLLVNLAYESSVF
T1 sequence (Q02083 126-359): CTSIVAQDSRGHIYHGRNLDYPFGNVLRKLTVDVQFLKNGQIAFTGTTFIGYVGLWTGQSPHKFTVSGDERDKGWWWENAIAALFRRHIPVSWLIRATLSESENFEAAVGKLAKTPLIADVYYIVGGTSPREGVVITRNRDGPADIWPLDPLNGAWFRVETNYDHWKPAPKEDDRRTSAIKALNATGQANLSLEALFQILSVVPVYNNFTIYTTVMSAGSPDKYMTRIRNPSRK

[2] = molecular target: T2, N-acylethanolamine acid amidase (NAAA) (Rattus norvegicus, UniProt Q5KTC7); test: enzyme activity assay with extracted recombinant rNAAA, heptadecenoylethanolamide substrate, concentration-response
T2 construct: extracted recombinant rat NAAA (rNAAA)
T2 sequence (Q5KTC7 34-130): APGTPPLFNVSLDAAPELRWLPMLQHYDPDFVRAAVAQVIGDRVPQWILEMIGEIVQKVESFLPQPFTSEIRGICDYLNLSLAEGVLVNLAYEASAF
T2 sequence (Q5KTC7 131-362): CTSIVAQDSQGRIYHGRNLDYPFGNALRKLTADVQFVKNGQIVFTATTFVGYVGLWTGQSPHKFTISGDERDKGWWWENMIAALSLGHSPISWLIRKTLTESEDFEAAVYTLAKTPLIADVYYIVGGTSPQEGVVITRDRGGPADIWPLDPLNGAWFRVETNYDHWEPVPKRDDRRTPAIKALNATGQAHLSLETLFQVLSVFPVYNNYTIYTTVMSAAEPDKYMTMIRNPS

FAAH = molecular target: T3, FAAH (Rattus norvegicus, UniProt P97612); test: enzyme activity assay with extracted recombinant rFAAH, anandamide substrate (selectivity counter-assay)
T3 construct: extracted recombinant rat FAAH (rFAAH)
T3 sequence (P97612 1-579): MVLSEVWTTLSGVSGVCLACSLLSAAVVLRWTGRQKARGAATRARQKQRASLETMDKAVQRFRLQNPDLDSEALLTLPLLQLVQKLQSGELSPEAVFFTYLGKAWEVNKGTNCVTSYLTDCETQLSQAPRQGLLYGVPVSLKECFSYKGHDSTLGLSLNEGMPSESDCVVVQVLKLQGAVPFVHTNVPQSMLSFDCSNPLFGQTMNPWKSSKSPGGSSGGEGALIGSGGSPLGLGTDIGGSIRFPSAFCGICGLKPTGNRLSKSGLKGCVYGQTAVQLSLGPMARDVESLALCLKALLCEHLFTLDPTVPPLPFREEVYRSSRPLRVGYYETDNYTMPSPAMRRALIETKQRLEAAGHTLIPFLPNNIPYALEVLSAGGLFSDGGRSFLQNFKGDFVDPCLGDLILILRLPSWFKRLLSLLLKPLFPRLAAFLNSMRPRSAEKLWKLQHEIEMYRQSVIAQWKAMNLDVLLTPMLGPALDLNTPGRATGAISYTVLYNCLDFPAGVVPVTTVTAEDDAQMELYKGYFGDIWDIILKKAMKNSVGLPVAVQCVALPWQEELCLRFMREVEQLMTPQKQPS

IC50 [1]: 0.269 ± 0.0438 µM
IC50 [2]: 0.269 ± 0.0224 µM
IC50 (FAAH): 42 ± 1.92 µM
SMILES: O=C(CCCCCc1ccccc1)N1CCOC1=O [F96, 3-(6-phenylhexanoyl)oxazolidin-2-one]
